Like-named read-outs stand apart in the source and are kept apart here.
Key:
D39 (serotype 2) capsule = test: Total capsular polysaccharide (CPS) immunoblot with densitometry; assay type: cell-based, Streptococcus pneumoniae
Experimental: (§1) S. pneumoniae strains were cultured with DFMO and AMXT 1501 at varying final concentrations of 1/2, 1/4, and 1/8 MIC to OD600 0.2–0.3 either individually or together to estimate any additive or synergistic effects. Capsular polysaccharides (CPS) were extracted and quantified in triplicate, as described previously[26] with slight modification. Briefly, CPS was extracted in a lysis buffer (4% deoxycholate, 50 µg/mL DNAse I and 50 µg/mL RNAse A) at 37 °C for 10 min and centrifuged at 18,000×g for 10 min. The supernatant (2 µL) was spotted on a 0.2-µm-pore-size nitrocellulose membrane (Thermo Fisher Scientific, Waltham, MA, USA) and oven dried at 60 °C for 15 min. The membranes were blocked and incubated with different types of antisera for capsule detection: antisera type- 4 (for TIGR4), 2 (for D39), polyclonal (for EF3030) and 3 (for WU2) (Cedarlane, Burlington, NC, USA). A conjugated polyclonal goat anti-rabbit IgG-HRP (Agilent Technologies, Santa Clara, CA, USA) was used for enhanced chemiluminescence (ECL) detection in all the strains (Thermo Fisher Scientific, Waltham, MA, USA) and scanned using a ChemiDoc XRS+ with Image Lab software (Bio-Rad, Hercules, CA, USA). Densitometry analysis of the immunoblot was done with NIH ImageJ software.
(§2) We determined the impact of varying concentrations of DFMO (1/8 to 1/2 MIC) on CPS in all serotypes (2, 4, 19F, and 3) used in this study. […] D39 was treated with 1/8 MIC DFMO alone, 1/4 MIC agmatine (Agm) alone, a combination of 1/8 MIC DFMO and 1/4 MIC Agm, and a control without DFMO or Agm. CPS was extracted as described in the previous section and immunoblot analysis with type 2 antisera was performed to detect CPS semi-quantitatively.

WU2 (serotype 3) capsule = test: as above; assay type: cell-based, Streptococcus pneumoniae
Experimental: as §1, §2

[1] = tested on: TIGR4 (serotype 4) capsule; test: as above; assay type: cell-based, Streptococcus pneumoniae
Experimental: as §1, §2

[2] = tested on: EF3030 (serotype 19F) capsule; test: as above; assay type: cell-based, Streptococcus pneumoniae
Experimental: as §1, §2

[3] = design: method as in PMID 30262852; conditions: human ref 35; cited from earlier work
[4] = target: SP_0916 (arginine decarboxylase, ADC) (Streptococcus pneumoniae, UniProt A0A0H2UPK4); test: Inhibition of decarboxylase activities of recombinant SP_0916 (LC-MS); assay type: biochemical; conditions: 10 mM substrate, 15 min, 37 °C
Sequence of SP_0916 (arginine decarboxylase, ADC) (A0A0H2UPK4 entry or part of it): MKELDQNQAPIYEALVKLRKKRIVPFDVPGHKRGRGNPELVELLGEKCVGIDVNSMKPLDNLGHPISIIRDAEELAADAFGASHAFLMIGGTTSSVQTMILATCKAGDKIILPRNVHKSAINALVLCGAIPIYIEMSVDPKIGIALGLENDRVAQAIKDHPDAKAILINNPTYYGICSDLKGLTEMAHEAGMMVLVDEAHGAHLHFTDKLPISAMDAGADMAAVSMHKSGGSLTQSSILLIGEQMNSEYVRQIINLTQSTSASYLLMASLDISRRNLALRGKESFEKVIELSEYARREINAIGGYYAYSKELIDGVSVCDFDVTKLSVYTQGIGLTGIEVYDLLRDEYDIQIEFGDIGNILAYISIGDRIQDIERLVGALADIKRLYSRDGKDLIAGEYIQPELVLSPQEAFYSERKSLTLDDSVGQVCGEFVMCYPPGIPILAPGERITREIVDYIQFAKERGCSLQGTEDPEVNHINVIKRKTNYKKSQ
Description: We determined the impact of DFMO (ODC/ADC inhibitor) and α-difluoromethylarginine (DFMA, an ADC inhibitor) on the decarboxylase activities of SP_0916. BL21(DE3) cells expressing recombinant His tag SP_0916 were lysed with B-PER reagent buffer (Thermo Fisher Scientific, Waltham, MA, USA), lysate separated by loading unto HisPur Cobalt Spin Column (Thermo Fisher Scientific, Waltham, MA, USA), desalted using Sephadex G-25 PD-10 column (GE Healthcare, Chicago, IL, USA), and protein concentration estimated using the Pierce BCA Protein Assay kit (Thermo Fisher Scientific, Waltham, MA, USA).
SP_0916-encoded protein (0.926 µmol L^−1) was mixed with 10 mM substrate (arginine, lysine or ornithine) in the reaction mixture (500 µL reaction volume, 50 mM Tris–HCl, pH 8.0) that contains 2.5 mM MgSO4 and 0.6 mM PLP. DFMO was diluted in water to 3–900 mM and added to the reaction mixture after 5 min preincubation at 37 °C in the dark. DFMA stock was made in a similar manner but was diluted in water to 0.3–1000 µM. The enzyme and inhibitor were incubated at 37 °C for 15 min in the dark and the reaction terminated with 0.3 M perchloric acid. After incubation on ice for 15 min, the samples were neutralized with 25 µL of 10 N KOH and extracted with 1 mL of 1-butanol. The organic layer was dried under nitrogen gas and reconstituted with 100 µL of water containing Spermidine-d8 and Glucose-d7 as an internal standard. Analysis of the extracts was performed on a Surveyor LC–MS system. 5 µL of reconstitution was injected to the LC–MS system for detection of the products (agmatine, cadaverine or putrescine). We used internal standards to normalize and determine the peak intensity (area ratio) for each metabolite detected. Enzyme activity without inhibitor is referred to as a control activity. All experiments were performed in triplicate. The concentration of inhibitor that inhibited 50% of the control activity (IC50 value) was determined by varying the concentration of the indicated DFMO or DFMA and measuring the decarboxylase activity. Sigma Plot v. 12 was used to fit the curve through the points and IC50 values were interpolated from the fitted curve.

**Q.** For NCCC[C@](N)(C(=O)O)C(F)F [DFMO, α-difluoromethylornithine], which “less capsule compared to untreated controls (densitometry of immunoblots)” value (D39 (serotype 2) capsule) is on record?
**A.** ~71%

**Q.** What about the “concentration that inhibits CPS” value (D39 (serotype 2) capsule; D39, 1/8 MIC) of the same compound?
**A.** 34 mM

**Q.** And the “total CPS (capsule) by immunoblot” value (D39 (serotype 2) capsule; D39, DFMO 1/8 MIC 34 mM, agmatine 1/4 MIC 20 mM, AMXT 1501 1/2 MIC 7.4 µM, alone or with agmatine)?
**A.** inhibits the capsule production

**Q.** What about the “less capsule compared to untreated controls (densitometry of immunoblots)” value (WU2 (serotype 3) capsule) of the same compound?
**A.** ~39%

**Q.** What about the “inhibition of CPS” value (WU2 (serotype 3) capsule; serotype 3, DFMO less than 137 mM) of the same compound?
**A.** failed to inhibit CPS

**Q.** What about the “less capsule compared to untreated controls (densitometry of immunoblots)” value [1] of the same compound?
**A.** approximately 85%

**Q.** And the “inhibition of CPS” value ([1]; serotype 4, DFMO less than 137 mM)?
**A.** failed to inhibit CPS

**Q.** And the “less capsule compared to untreated controls (densitometry of immunoblots)” value [2]?
**A.** ~84%

**Q.** And the “inhibition of CPS” value ([2]; serotype 19F, DFMO less than 137 mM)?
**A.** failed to inhibit CPS

**Q.** What about the “safe dosage for use in human” value [3] of the same compound?
**A.** around 1.0 g/m^2/day

**Q.** And the “safe dosage for use in human, as concentration” value [3]?
**A.** 1 to 2 mM

**Q.** What about the IC50 ([4]; DFMO IC50, ornithine to putrescine) of the same compound?
**A.** 26.6 ± 4.1 mM

**Q.** And the IC50 ([4]; arginine to agmatine, read-out: DFMO IC50)?
**A.** 75.1 ± 5.5 mM

**Q.** What about the IC50 ([4]; lysine to cadaverine, read-out: DFMO IC50) of the same compound?
**A.** 8.2 ± 0.2 mM

Source: article PMC9276676, “Difluoromethylornithine (DFMO) and AMXT 1501 inhibit capsule biosynthesis in pneumococci” (Scientific Reports, 2022)
